Experiments:
DNA = assay: Physicochemical phase (A, B or C) of the nucleolipid complexes as a function of the charge ratio; settings: micellar form and in combination with a neutral colipid (DOPE and cholesterol)
Procedure: FIG. 8: Tables indicating the physicochemical phase (phase A, B or C) in which exist the nucleolipid complexes formed with compound 2 in comparison with its amine-containing analogue, as a function of the charge ratio.
The determination of the phases was carried out for compound 2 and for its amine-containing homologue in micellar form and in combination with a neutral colipid (DOPE and cholesterol).
The nucleic acid used is the plasmid pXL3031, as described in the preceding example.
The complexes are prepared at concentrations of 0.25 mg of DNA/ml with an appropriate quantity of lipid as defined in the present invention in the desired charge ratio. The complex is prepared in a medium containing 5% glucose and a 20 mM solution of sodium chloride. 50 μl of nucleolipid complex are then diluted 20-fold in 950 μl of solution containing 5% glucose and a 20 mM solution of sodium chloride.
The size of the complexes was determined by measuring the hydrodynamic diameter by dynamic light scattering with the aid of a Coulter N4+ apparatus.
The complexes formed are negatively charged overall, which makes the crossing of cell membranes difficult. It is thus preferable for the values not to be situated in this region in order to transfect the DNA.
Phase B for which the DNA is completely saturated with the cationic lipid and the complexes are neutral or slightly positive overall. The ionic repulsions being […], this phase is unstable. A phenomenon of "cross-linking" may occur, leading to precipitation of the complexes. The complexes in this state cannot therefore be used as injection.
Phase C for which the DNA is oversaturated with the lipid and the complexes are therefore positive overall. […] The complexes in phase C are therefore particularly suitable for use for the transfer of nucleic acids into cells.
The tables in FIGS. 8, 9, 10 and 11 compare the phases as a function of the charge ratios between the compounds of the invention and their amine-containing analogues, that is to say the cationic lipids whose amidine or guanidine function is replaced by an amino function. It is observed that phase B is shifted towards much lower charge ratios. Thus, the incorporation of amidine functions into the cationic head contributes to the increase in the affinity of the compounds for DNA. This constitutes an important property of the compounds of the invention because the complexes which they form with DNA may be used in phase C without as a result being at excessively high charge ratios, with the beneficial effects which result therefrom on toxicity.

HeLa cells [1] = assay: In vitro transfection of luciferase plasmid pXL2774; format: cell-based
Procedure: (§1) FIG. 2: Measurement of the in vitro efficiency of transfection of compound 1 according to the invention into NIH3T3, HepG2 and HeLa cells, in the absence of serum proteins and in comparison with its amine-containing homologue (RPR120535).
(§2) The measurements were carried out at different charge ratios which are plotted on the x-axis. The expression of luciferase is plotted on the y-axis and is expressed in RLU (Relative Light Unit) per well.
(§3) The nucleic acid used is the plasmid pXL2774 (WO 97/10343) comprising the gene encoding luciferase under the control of the human cytomegalovirus (CMV) promoter.
(§4) The nucleic acid solutions are diluted to 20 μg/ml in physiological saline (0.15 M sodium chloride NaCl).
(§5) The products described in the invention are dissolved in water at a concentration varying from 60 to 240 μM and mixed volume for volume with the DNA solution; the final saline concentration is 75 mM.
(§6) The cells are cultured under appropriate conditions in 24-well microplates (2 cm^2 /well) and are transfected while they are in the exponential growth phase and at 50-70% confluence.
(§7) The cells are washed with twice 500 μl of medium free of serum proteins and grown again either in serum-free medium (transfection in the absence of serum), or in complete medium (transfection in the presence of serum). 50 μl of transfectant mixture [i.e. 0.5 μg DNA/well] are added to the cells [3 wells/condition DNA vector]. When the cells are transfected in the absence of serum, the growth medium is supplemented 2 hours after transfection with the appropriate quantity of serum.
(§8) The transfection efficiency is evaluated 48 hours after the transfection by measuring the expression of luciferase according to the recommendations given for the use of the Promega kit [Luciferase Assay System]. The toxicity of the transfectant mixtures is estimated by a measurement of the protein concentrations in the cell lysates.
(§9) Compound 1 was used in comparison with the cationic lipid RPR120535 (TFA salt) [described in patent application WO 97/18185 incorporated into the present application by way of reference] as DNA vector to transfect three different cell lines: NIH3T3 cells, HepG2 cells and HeLa cells. […] The transfection efficiency for compound 1 and for the cationic lipid for comparison in the three cell types is represented in FIG. 2, for nmol of compound/μg of DNA ratios of between 3 and 12.

NIH3T3 cells [2] = assay: as above; format: cell-based; settings: FIG. 2, absence of serum proteins, 48 hours
Procedure: as §1, §2, §3, §4, §5, §6, §7, §8, §9

HepG2 cells [3] = assay: as above; format: cell-based
Procedure: as §1, §2, §3, §4, §5, §6, §7, §8, §9

HeLa cells [4] = assay: Toxicity of the transfectant mixtures (protein concentrations in the cell lysates); format: cell-based
Procedure: as §6, §7, §8, §9

NIH3T3 cells [5] = assay: as above; format: cell-based
Procedure: as §6, §7, §8, §9

HepG2 cells [6] = assay: as above; format: cell-based
Procedure: as §6, §7, §8, §9

[7] = test system: NIH3T3, HepG2 and HeLa cells; assay: In vitro transfection in the absence and in the presence of serum proteins; format: cell-based; settings: with versus without serum proteins; FIG. 3
Procedure: FIG. 3: Measurement of the in vitro efficiency of transfection of compound 1 according to the invention into NIH3T3, HepG2 and HeLa cells, in the absence (white bars) and in the presence (black bars) of serum proteins and in comparison with its amine-containing homologue (RPR120535).
as §2, §3
The nucleic acid solutions are diluted to 20 μg/ml in physiological saline (0.15 M sodium chloride NaCl). […]
as §7, with “50 μl of transfectant mixture [i.e. 0.5 μg DNA/well] are added to the cells [3 wells/condition DNA vector].” left out
The transfection efficiency is evaluated 48 hours after the transfection by measuring the expression of luciferase according to the recommendations given for the use of the Promega kit [Luciferase Assay System]. […]

[8] = FIG. 2, absence of serum proteins, 48 hours

CCCCCCCCCCCCCCN(CCCCCCCCCCCCCC)C(=O)CNC(=O)CNCCCNCCCCNCCCNC(=N)N [compound 3, N-ditetradecylcarbamoylmethyl-2-{3-[4-(3-guanidinopropylamino)butylamino]propylamino}acetamide]
shift of the unstable phase B in comparison with the amine-containing analogue (DNA): a shift is observed from the unstable phase B towards lower charge ratios

CCCCCCCCCCCCCCN(CCCCCCCCCCCCCC)C(=O)CNC(=O)CNCCCN(CCCCN(CCCNC(=N)N)CCCNC(=N)N)CCCNC(=N)N [compound 6, 2-{3-[{4-[bis(3-guanidinopropyl)amino]butyl}-(3-guanidinopropyl)amino]-propylamino}-N-ditetradecylcarbamoylmethylacetamide]
shift of the unstable phase B in comparison with the amine-containing analogue (DNA): a shift is observed from the nstable phase B towards lower charge ratios

CCCCCCCCCCCCCCCCCCN(CCCCCCCCCCCCCCCCCC)C(=O)CNCCN(CCNC(=N)N)CCNC(=N)N [compound 2, 2-{2-[bis(2-guanidinoethyl)amino]ethylamino}-N,N-dioctadecylacetamide]
shift of the unstable phase B in comparison with the amine-containing analogue (DNA): a shift is observed from the unstable phase B towards lower charge ratios

CCCCCCCCCCCCCCCCCCN(CCCCCCCCCCCCCCCCCC)C(=O)CNC(=O)CNCCCNCCCCNCCCNC(=N)N [compound 1, N-dioctadecylcarbamoylmethyl-2-{3-[4-(3-guanidinopropylamino)butylamino]propylamino}acetamide]
ratio of cationic lipid to DNA giving the maximum transfection efficiency (HeLa cells [1]; [8]): 9 nanomoles cationic lipid/μg of DNA | luciferase expression level relative to the product tested in comparison (RPR120535) (HeLa cells [1]; absence of serum): 2 to 4 times higher | ratio of cationic lipid to DNA giving the maximum transfection efficiency (NIH3T3 cells [2]): 6 nanomoles cationic lipid/μg of DNA | ratio of cationic lipid to DNA giving the maximum transfection efficiency (HepG2 cells [3]; [8]): 9 nanomoles cationic lipid/μg of DNA | luciferase expression level relative to the product tested in comparison (RPR120535) (HepG2 cells [3]; absence of serum): 2 to 4 times higher | toxicity of the transfectant mixture (HeLa cells [4]): no significant toxicity was detected | toxicity of the transfectant mixture (NIH3T3 cells [5]): no significant toxicity was detected | toxicity of the transfectant mixture (HepG2 cells [6]): no significant toxicity was detected | transfection levels with or without serum proteins [7]: the transfection levels with or without serum proteins are the same

CCCCCCCCCCCCCCN(CCCCCCCCCCCCCC)C(=O)CNC(=O)CN(CCCCNCCCNC(=N)N)CCCNC(=N)N [compound 5, N-ditetradecylcarbamoylmethyl-2-{(3-guanidinopropyl)-[4-(3-guanidinopropylamino)butyl]amino}acetamide]
shift of the unstable phase B in comparison with the amine-containing analogue (DNA): a shift is observed from the unstable phase B towards lower charge ratios

CCCCCCCCCCCCCCCCCCN(CCCCCCCCCCCCCCCCCC)C(=O)CNC(=O)CNCCCNCCCCNCCCN [RPR120535, reference compound]
transfection levels with or without serum proteins [7]: a strong inhibition is observed due to the presence of the serum proteins
